pKd: −log10 of the molar value. Non-standard residues stand in square brackets, D forms with d. Residues, ends and D or L forms follow the SMILES beside them. pT = C[C@@H](OP(=O)(O)O)[C@H](N)C(=O)O; pS = N[C@@H](COP(=O)(O)O)C(=O)O
Molecular target: T1, 14-3-3ζ (Homo sapiens, UniProt P63104)
T1 construct: Full-length expression and purification of 14-3-3; made in house; host or cells: E. coli BL21 (DE3)STAR
T1 sequence (P63104 1-245): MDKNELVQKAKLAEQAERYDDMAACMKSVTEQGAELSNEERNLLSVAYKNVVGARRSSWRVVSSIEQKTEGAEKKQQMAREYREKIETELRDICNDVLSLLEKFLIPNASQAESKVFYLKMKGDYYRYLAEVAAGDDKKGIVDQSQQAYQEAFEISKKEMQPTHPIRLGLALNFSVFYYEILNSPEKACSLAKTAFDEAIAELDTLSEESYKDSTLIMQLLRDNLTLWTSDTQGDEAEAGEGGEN
Assay: FP assay with GR phosphorylated peptides and 14-3-3ζ
Assay type: binding
Details: FITC-labeled peptide 60 nM (monophosphorylated) or 10 nM (doubly phosphorylated) titrated with 14-3-3ζ, 30 min RT, Hill fit, triplicates; read-out: Kd with 14-3-3ζ by FP
Experimental: After 30-min incubation at RT, the plates were read on a plate reader PHERAstar (BMG LABTECH GmbH) for FP signal using […] and standard excitation (485 nm) and emission (520 nm). Measurements were performed as triplicates. Binding data were fit to a standard Hill equation using the software Genedata Screener. The figures were made using the software GraphPad Prism 8. FP data were expressed as millipolarization (mP) units, and the dynamic range (ΔmP) was the difference of the signals from the bound peptide and free peptide. Errors are the standard error of the fit.

SMILES | pKd
CSCC[C@H](N)C(=O)N[C@@H](CCCNC(=N)N)C(=O)N1CCC[C@H]1C(=O)N[C@@H](CC(=O)O)C(=O)N[C@H](C(=O)N[C@@H](CO)C(=O)N[C@@H](COP(=O)(O)O)C(=O)N1CCC[C@H]1C(=O)N1CCC[C@H]1C(=O)N[C@@H](CO)C(=O)N[C@@H](CO)C(=O)N[C@@H](CO)C(=O)N[C@@H](CO)C(=O)O)C(C)C [GR_pS404] (H-MRPDVS[pS]PPSSSS-OH; N-terminus assumed) | < 3.82
CC[C@H](C)[C@H](NC(=O)[C@H](CCC(N)=O)NC(=O)CNC(=O)[C@@H](N)CCC(N)=O)C(=O)N[C@@H](CO)C(=O)N[C@@H](CC(C)C)C(=O)N[C@@H](COP(=O)(O)O)C(=O)N[C@@H](CO)C(=O)NCC(=O)N[C@@H](CCC(=O)O)C(=O)N[C@H](C(=O)N[C@@H](CC(=O)O)C(=O)N[C@@H](CC(C)C)C(=O)O)[C@@H](C)O [GR_pS113] (H-QGQISL[pS]SGETDL-OH; N-terminus and C-terminus assumed) | < 3.82
CC(C)C[C@H](NC(=O)[C@@H](NC(=O)[C@@H](NC(=O)[C@H](CC(N)=O)NC(=O)[C@H](CO)NC(=O)[C@@H]1CCCN1C(=O)[C@H](COP(=O)(O)O)NC(=O)[C@H](CO)NC(=O)[C@H](CC(C)C)NC(=O)[C@@H](NC(=O)[C@H](CC(C)C)NC(=O)[C@H](CC(=O)O)NC(=O)CN)C(C)C)C(C)C)[C@@H](C)O)C(=O)O [GR_pS267] (H-GDLVLS[pS]PSNVTL-OH; N-terminus assumed) | < 3.82

Same assay, conditions: FP, doubly phosphorylated 31-mer peptides, triplicates; read-out: Kd with 14-3-3ζ (values in nM)

SMILES | Kd [nM]
CC[C@H](C)[C@H](NC(=O)[C@@H](NC(=O)[C@@H](N)CCCCN)[C@@H](C)O)C(=O)N[C@H](C(=O)N1CCC[C@H]1C(=O)N[C@@H](C)C(=O)N[C@@H](COP(=O)(O)O)C(=O)N[C@@H](CC(C)C)C(=O)N1CCC[C@H]1C(=O)N[C@@H](CCC(N)=O)C(=O)N[C@@H](CC(C)C)C(=O)N[C@H](C(=O)N1CCC[C@H]1C(=O)NCC(=O)NCC(=O)NCC(=O)NCC(=O)NCC(=O)N[C@@H](CCCNC(=N)N)C(=O)N[C@@H](CO)C(=O)N[C@@H](Cc1ccc(O)cc1)C(=O)N[C@@H](CCCNC(=N)N)C(=O)N[C@@H](CCC(N)=O)C(=O)N[C@@H](CO)C(=O)N[C@@H](COP(=O)(O)O)C(=O)N[C@@H](C)C(=O)N[C@@H](CC(N)=O)C(=O)N[C@@H](CC(C)C)C(=O)N[C@@H](CC(C)C)C(=O)N[C@@H](CS)C(=O)N[C@@H](Cc1ccccc1)C(=O)O)[C@@H](C)O)C(C)C [GR_pS524-pS617] (H-KTIVPA[pS]LPQLTPGGGGGRSYRQS[pS]ANLLCF-OH) | 140

Same assay, conditions: read-out: PKd with 14-3-3ζ (converted)

SMILES | Kd [nM]
CC[C@H](C)[C@H](NC(=O)[C@H](C)NC(=O)[C@@H](N)CCCCN)C(=O)N[C@H](C(=O)N1CCC[C@H]1C(=O)N[C@@H](C)C(=O)N[C@H](C(=O)N[C@@H](CC(C)C)C(=O)N1CCC[C@H]1C(=O)N[C@@H](CCC(N)=O)C(=O)N[C@@H](CC(C)C)C(=O)N[C@H](C(=O)N1CCC[C@H]1C(=O)NCC(=O)NCC(=O)NCC(=O)NCC(=O)NCC(=O)N[C@@H](CCCNC(=N)N)C(=O)N[C@@H](CO)C(=O)N[C@@H](Cc1ccc(O)cc1)C(=O)N[C@@H](CCCNC(=N)N)C(=O)N[C@@H](CCC(N)=O)C(=O)N[C@@H](CO)C(=O)N[C@@H](COP(=O)(O)O)C(=O)N[C@@H](C)C(=O)N[C@@H](CC(N)=O)C(=O)N[C@@H](CC(C)C)C(=O)N[C@@H](CC(C)C)C(=O)N[C@@H](CS)C(=O)N[C@@H](Cc1ccccc1)C(=O)O)[C@@H](C)O)[C@@H](C)OP(=O)(O)O)C(C)C [GR_T519A] (H-KAIVPA[pT]LPQLTPGGGGGRSYRQS[pS]ANLLCF-OH) | 63.1
CC[C@H](C)[C@H](NC(=O)[C@@H](NC(=O)[C@@H](N)CCCCN)[C@@H](C)O)C(=O)N[C@H](C(=O)N1CCC[C@H]1C(=O)N[C@@H](C)C(=O)N[C@H](C(=O)N[C@@H](CC(C)C)C(=O)N1CCC[C@H]1C(=O)N[C@@H](CCC(N)=O)C(=O)N[C@@H](CC(C)C)C(=O)N[C@H](C(=O)N1CCC[C@H]1C(=O)NCC(=O)NCC(=O)NCC(=O)NCC(=O)NCC(=O)N[C@@H](CCCNC(=N)N)C(=O)N[C@@H](CO)C(=O)N[C@@H](Cc1ccc(O)cc1)C(=O)N[C@@H](CCCNC(=N)N)C(=O)N[C@@H](CCC(N)=O)C(=O)N[C@@H](CO)C(=O)N[C@@H](COP(=O)(O)O)C(=O)N[C@@H](C)C(=O)N[C@@H](C)C(=O)N[C@@H](CC(C)C)C(=O)N[C@@H](CC(C)C)C(=O)N[C@@H](CS)C(=O)N[C@@H](Cc1ccccc1)C(=O)O)[C@@H](C)O)[C@@H](C)OP(=O)(O)O)C(C)C [GR_N619A] (H-KTIVPA[pT]LPQLTPGGGGGRSYRQS[pS]AALLCF-OH) | 39.8
CC[C@H](C)[C@H](NC(=O)[C@@H](NC(=O)[C@@H](N)CCCCN)[C@@H](C)O)C(=O)N[C@H](C(=O)N1CCC[C@H]1C(=O)N[C@@H](C)C(=O)N[C@H](C(=O)N[C@@H](CC(C)C)C(=O)N1CCC[C@H]1C(=O)N[C@@H](CCC(N)=O)C(=O)N[C@@H](CC(C)C)C(=O)N[C@H](C(=O)N1CCC[C@H]1C(=O)NCC(=O)NCC(=O)NCC(=O)NCC(=O)NCC(=O)N[C@@H](CCCNC(=N)N)C(=O)N[C@@H](C)C(=O)N[C@@H](Cc1ccc(O)cc1)C(=O)N[C@@H](CCCNC(=N)N)C(=O)N[C@@H](CCC(N)=O)C(=O)N[C@@H](CO)C(=O)N[C@@H](COP(=O)(O)O)C(=O)N[C@@H](C)C(=O)N[C@@H](CC(N)=O)C(=O)N[C@@H](CC(C)C)C(=O)N[C@@H](CC(C)C)C(=O)N[C@@H](CS)C(=O)N[C@@H](Cc1ccccc1)C(=O)O)[C@@H](C)O)[C@@H](C)OP(=O)(O)O)C(C)C [GR_S612A] (H-KTIVPA[pT]LPQLTPGGGGGRAYRQS[pS]ANLLCF-OH) | 31.6
CC[C@H](C)[C@H](NC(=O)[C@@H](NC(=O)[C@@H](N)CCCCN)[C@@H](C)O)C(=O)N[C@H](C(=O)N[C@@H](C)C(=O)N[C@@H](C)C(=O)N[C@H](C(=O)N[C@@H](CC(C)C)C(=O)N1CCC[C@H]1C(=O)N[C@@H](CCC(N)=O)C(=O)N[C@@H](CC(C)C)C(=O)N[C@H](C(=O)N1CCC[C@H]1C(=O)NCC(=O)NCC(=O)NCC(=O)NCC(=O)NCC(=O)N[C@@H](CCCNC(=N)N)C(=O)N[C@@H](CO)C(=O)N[C@@H](Cc1ccc(O)cc1)C(=O)N[C@@H](CCCNC(=N)N)C(=O)N[C@@H](CCC(N)=O)C(=O)N[C@@H](CO)C(=O)N[C@@H](COP(=O)(O)O)C(=O)N[C@@H](C)C(=O)N[C@@H](CC(N)=O)C(=O)N[C@@H](CC(C)C)C(=O)N[C@@H](CC(C)C)C(=O)N[C@@H](CS)C(=O)N[C@@H](Cc1ccccc1)C(=O)O)[C@@H](C)O)[C@@H](C)OP(=O)(O)O)C(C)C [GR_P522A] (H-KTIVAA[pT]LPQLTPGGGGGRSYRQS[pS]ANLLCF-OH) | 63.1
CC[C@H](C)[C@H](NC(=O)[C@@H](NC(=O)[C@@H](N)CCCCN)[C@@H](C)O)C(=O)N[C@@H](C)C(=O)N1CCC[C@H]1C(=O)N[C@@H](C)C(=O)N[C@H](C(=O)N[C@@H](CC(C)C)C(=O)N1CCC[C@H]1C(=O)N[C@@H](CCC(N)=O)C(=O)N[C@@H](CC(C)C)C(=O)N[C@H](C(=O)N1CCC[C@H]1C(=O)NCC(=O)NCC(=O)NCC(=O)NCC(=O)NCC(=O)N[C@@H](CCCNC(=N)N)C(=O)N[C@@H](CO)C(=O)N[C@@H](Cc1ccc(O)cc1)C(=O)N[C@@H](CCCNC(=N)N)C(=O)N[C@@H](CCC(N)=O)C(=O)N[C@@H](CO)C(=O)N[C@@H](COP(=O)(O)O)C(=O)N[C@@H](C)C(=O)N[C@@H](CC(N)=O)C(=O)N[C@@H](CC(C)C)C(=O)N[C@@H](CC(C)C)C(=O)N[C@@H](CS)C(=O)N[C@@H](Cc1ccccc1)C(=O)O)[C@@H](C)O)[C@@H](C)OP(=O)(O)O [GR_V521A] (H-KTIAPA[pT]LPQLTPGGGGGRSYRQS[pS]ANLLCF-OH) | 39.8
CC(C)C[C@H](NC(=O)[C@H](CC(N)=O)NC(=O)[C@H](C)NC(=O)[C@H](COP(=O)(O)O)NC(=O)[C@H](CO)NC(=O)[C@H](CCC(N)=O)NC(=O)[C@H](CCCNC(=N)N)NC(=O)[C@H](Cc1ccc(O)cc1)NC(=O)[C@H](CO)NC(=O)[C@H](CCCNC(=N)N)NC(=O)CNC(=O)CNC(=O)CNC(=O)CNC(=O)CNC(=O)[C@@H]1CCCN1C(=O)[C@@H](NC(=O)[C@H](CC(C)C)NC(=O)[C@H](CCC(N)=O)NC(=O)[C@@H]1CCCN1C(=O)[C@H](CC(C)C)NC(=O)[C@@H](NC(=O)[C@H](C)NC(=O)[C@@H]1CCCN1C(=O)[C@@H](NC(=O)[C@H](C)NC(=O)[C@@H](NC(=O)[C@@H](N)CCCCN)[C@@H](C)O)C(C)C)[C@@H](C)OP(=O)(O)O)[C@@H](C)O)C(=O)N[C@@H](CC(C)C)C(=O)N[C@@H](CS)C(=O)N[C@@H](Cc1ccccc1)C(=O)O [GR_I520A] (H-KTAVPA[pT]LPQLTPGGGGGRSYRQS[pS]ANLLCF-OH) | 50.1
CC[C@H](C)[C@H](NC(=O)[C@@H](NC(=O)[C@@H](N)CCCCN)[C@@H](C)O)C(=O)N[C@H](C(=O)N1CCC[C@H]1C(=O)N[C@@H](C)C(=O)N[C@H](C(=O)N[C@@H](CC(C)C)C(=O)N1CCC[C@H]1C(=O)N[C@@H](CCC(N)=O)C(=O)N[C@@H](CC(C)C)C(=O)N[C@H](C(=O)N1CCC[C@H]1C(=O)NCC(=O)NCC(=O)NCC(=O)NCC(=O)NCC(=O)N[C@@H](CCCNC(=N)N)C(=O)N[C@@H](CO)C(=O)N[C@@H](Cc1ccc(O)cc1)C(=O)N[C@@H](CCCNC(=N)N)C(=O)N[C@@H](CCC(N)=O)C(=O)N[C@@H](CO)C(=O)N[C@@H](C)C(=O)N[C@@H](C)C(=O)N[C@@H](CC(N)=O)C(=O)N[C@@H](CC(C)C)C(=O)N[C@@H](CC(C)C)C(=O)N[C@@H](CS)C(=O)N[C@@H](Cc1ccccc1)C(=O)O)[C@@H](C)O)[C@@H](C)OP(=O)(O)O)C(C)C [GR_pT524-S617A] (H-KTIVPA[pT]LPQLTPGGGGGRSYRQSAANLLCF-OH) | 1260
